{"source": "BindingDB's records for doi:10.1021/jm00126a016", "about": "(G. D. Searle, 1989)"}
{"biological_target": "Glutamate receptor ionotropic NMDA, PCP site (Rattus norvegicus)", "assay": "Inhibition of [3H]1-[1-(2-thienyl) piperidine ([3H]TCP) binding to phencyclidine receptor", "units": {"IC50": "µM"}}
{"molecule": "Fc1ccc(C2NCCc3ccccc32)cc1", "note": "(stereo not drawn)", "IC50": 4.9}
{"molecule": "CN1CCc2ccccc2C1", "IC50": "> 30"}
{"molecule": "CC(C)C1NCCc2ccccc21", "note": "(stereo not drawn)", "IC50": 11}
{"molecule": "CC1Cc2ccccc2C(C)N1", "note": "(stereo not drawn)", "IC50": "> 30"}
{"molecule": "Clc1ccc(C2NCCc3ccccc32)cc1", "note": "(stereo not drawn)", "IC50": 5.3}
{"molecule": "C=CCN1C(C)Cc2ccccc2C1C", "note": "(stereo not drawn)", "IC50": 5.4}
{"molecule": "c1ccc2c(c1)CCNC2c1ccc2ccccc2c1", "note": "(stereo not drawn)", "IC50": "> 30"}
{"molecule": "c1ccc(C2NCc3ccccc32)cc1", "note": "(stereo not drawn)", "IC50": "> 30"}
